Measurements: PubChem BioAssay (NCI)
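How tested: cells in 96-well plates exposed to compound for 48 hours at five concentrations. At the GI50, growth is halved. At the TGI there is no net growth.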

Assays:
Experiment in all cases: NCI-60 cell line screen, 48 h
786-0 renal = system: 786-0 renal
A498 renal = system: A498 renal
A549 NSCLC = system: A549 NSCLC
ACHN renal = system: ACHN renal
BT-549 breast = system: BT-549 breast
CAKI-1 renal = system: CAKI-1 renal
CCRF-CEM leukemia = system: CCRF-CEM leukemia
COLO 205 colon = system: COLO 205 colon
DU-145 prostate = system: DU-145 prostate
EKVX NSCLC = system: EKVX NSCLC
HCC-2998 colon = system: HCC-2998 colon
HCT-15 colon = system: HCT-15 colon
HL-60(TB) leukemia = system: HL-60(TB) leukemia
HOP-62 NSCLC = system: HOP-62 NSCLC
HOP-92 NSCLC = system: HOP-92 NSCLC
HS 578T breast = system: HS 578T breast
HT29 colon = system: HT29 colon
IGROV1 ovarian = system: IGROV1 ovarian
K-562 leukemia = system: K-562 leukemia
KM12 colon = system: KM12 colon
LOX IMVI melanoma = system: LOX IMVI melanoma
M14 melanoma = system: M14 melanoma
MALME-3M melanoma = system: MALME-3M melanoma
MCF7 breast = system: MCF7 breast
MDA-MB-231 breast = system: MDA-MB-231 breast
MDA-MB-435 = system: MDA-MB-435
MOLT-4 leukemia = system: MOLT-4 leukemia
NCI-H226 lung = system: NCI-H226 lung
NCI-H460 lung = system: NCI-H460 lung
NCI-H522 lung = system: NCI-H522 lung
NCI/ADR-RES ovarian = system: NCI/ADR-RES ovarian
OVCAR-3 ovarian = system: OVCAR-3 ovarian
OVCAR-4 ovarian = system: OVCAR-4 ovarian
OVCAR-5 ovarian = system: OVCAR-5 ovarian
OVCAR-8 ovarian = system: OVCAR-8 ovarian
PC-3 prostate = system: PC-3 prostate
RPMI-8226 leukemia = system: RPMI-8226 leukemia
RXF 393 renal = system: RXF 393 renal
SF-268 CNS = system: SF-268 CNS
SF-295 CNS = system: SF-295 CNS
SK-MEL-2 melanoma = system: SK-MEL-2 melanoma
SK-MEL-28 melanoma = system: SK-MEL-28 melanoma
SK-MEL-5 melanoma = system: SK-MEL-5 melanoma
SK-OV-3 ovarian = system: SK-OV-3 ovarian
SN12C renal = system: SN12C renal
SNB-19 CNS = system: SNB-19 CNS
SNB-75 CNS = system: SNB-75 CNS
SR leukemia = system: SR leukemia
SW-620 colon = system: SW-620 colon
T-47D breast = system: T-47D breast
TK-10 renal = system: TK-10 renal
U251 CNS = system: U251 CNS
UACC-257 melanoma = system: UACC-257 melanoma
UACC-62 melanoma = system: UACC-62 melanoma
UO-31 renal = system: UO-31 renal

SMILES: Cc1ccc(-c2nc(N3CCNCC3)c3oc(-c4ccc(C)cc4)nc3n2)cc1
- GI50 (786-0 renal): 1.69 µM
- TGI (786-0 renal): 3.24 µM
- GI50 (A498 renal): 15.8 µM
- TGI (A498 renal): 32 µM
- GI50 (A549 NSCLC): 3.35 µM
- TGI (A549 NSCLC): 12.4 µM
- GI50 (ACHN renal): 2.23 µM
- TGI (ACHN renal): 4.78 µM
- GI50 (BT-549 breast): 5.39 µM
- TGI (BT-549 breast): 11.2 µM
- GI50 (CAKI-1 renal): 24.1 µM
- TGI (CAKI-1 renal): > 45.6 µM
- GI50 (CCRF-CEM leukemia): 1.49 µM
- TGI (CCRF-CEM leukemia): 4.04 µM
- GI50 (COLO 205 colon): 1.98 µM
- TGI (COLO 205 colon): 4.11 µM
- GI50 (DU-145 prostate): 1.98 µM
- TGI (DU-145 prostate): 3.76 µM
- GI50 (EKVX NSCLC): > 36.3 µM
- TGI (EKVX NSCLC): > 51.7 µM
- GI50 (HCC-2998 colon): 3.61 µM
- GI50 (HCT-15 colon): 1.72 µM
- TGI (HCT-15 colon): 3.28 µM
- GI50 (HL-60(TB) leukemia): 1.17 µM
- TGI (HL-60(TB) leukemia): 3.26 µM
- GI50 (HOP-62 NSCLC): 10.1 µM
- TGI (HOP-62 NSCLC): > 100 µM
- GI50 (HOP-92 NSCLC): 11.5 µM
- TGI (HOP-92 NSCLC): 26.5 µM
- TGI (HS 578T breast): > 24.2 µM
- GI50 (HT29 colon): 1.88 µM
- TGI (HT29 colon): 3.42 µM
- GI50 (IGROV1 ovarian): 1.92 µM
- TGI (IGROV1 ovarian): 3.81 µM
- GI50 (K-562 leukemia): 1.81 µM
- TGI (K-562 leukemia): 4.51 µM
- GI50 (KM12 colon): 1.66 µM
- TGI (KM12 colon): 3.2 µM
- GI50 (LOX IMVI melanoma): 1.88 µM
- TGI (LOX IMVI melanoma): 3.46 µM
- GI50 (M14 melanoma): 1.83 µM
- TGI (M14 melanoma): 3.69 µM
- GI50 (MALME-3M melanoma): 7.23 µM
- TGI (MALME-3M melanoma): 18.9 µM
- GI50 (MCF7 breast): 1.66 µM
- TGI (MCF7 breast): 3.53 µM
- GI50 (MDA-MB-231 breast): 1.77 µM
- TGI (MDA-MB-231 breast): 3.45 µM
- GI50 (MDA-MB-435): 2.3 µM
- TGI (MDA-MB-435): 6.22 µM
- GI50 (MOLT-4 leukemia): 2.2 µM
- TGI (MOLT-4 leukemia): 4.69 µM
- GI50 (NCI-H226 lung): > 44.1 µM
- TGI (NCI-H226 lung): > 64.7 µM
- GI50 (NCI-H460 lung): 2.03 µM
- TGI (NCI-H460 lung): 4.41 µM
- GI50 (NCI-H522 lung): 14.2 µM
- TGI (NCI-H522 lung): 36.1 µM
- GI50 (NCI/ADR-RES ovarian): 2 µM
- TGI (NCI/ADR-RES ovarian): 3.81 µM
- GI50 (OVCAR-3 ovarian): 1.95 µM
- TGI (OVCAR-3 ovarian): 3.87 µM
- GI50 (OVCAR-4 ovarian): 2.22 µM
- TGI (OVCAR-4 ovarian): 10.6 µM
- GI50 (OVCAR-5 ovarian): 5.21 µM
- TGI (OVCAR-5 ovarian): 17.9 µM
- GI50 (OVCAR-8 ovarian): 2.13 µM
- TGI (OVCAR-8 ovarian): 4.63 µM
- GI50 (PC-3 prostate): 1.77 µM
- TGI (PC-3 prostate): 3.43 µM
- GI50 (RPMI-8226 leukemia): 2.48 µM
- TGI (RPMI-8226 leukemia): 5.28 µM
- GI50 (RXF 393 renal): 3.89 µM
- TGI (RXF 393 renal): 8.81 µM
- GI50 (SF-268 CNS): 2.25 µM
- TGI (SF-268 CNS): 5.61 µM
- GI50 (SF-295 CNS): 12.1 µM
- TGI (SF-295 CNS): 52.6 µM
- GI50 (SK-MEL-2 melanoma): > 41.6 µM
- TGI (SK-MEL-2 melanoma): > 60.9 µM
- GI50 (SK-MEL-28 melanoma): 6.14 µM
- TGI (SK-MEL-28 melanoma): 11.5 µM
- GI50 (SK-MEL-5 melanoma): > 39.2 µM
- TGI (SK-MEL-5 melanoma): > 53.9 µM
- GI50 (SK-OV-3 ovarian): > 43.2 µM
- TGI (SK-OV-3 ovarian): > 59.2 µM
- GI50 (SN12C renal): 1.88 µM
- TGI (SN12C renal): 3.61 µM
- GI50 (SNB-19 CNS): 2.6 µM
- TGI (SNB-19 CNS): 7.02 µM
- GI50 (SNB-75 CNS): 8.66 µM
- TGI (SNB-75 CNS): > 32.1 µM
- GI50 (SR leukemia): 0.371 µM
- TGI (SR leukemia): 1.85 µM
- GI50 (SW-620 colon): 1.8 µM
- TGI (SW-620 colon): 4.02 µM
- GI50 (T-47D breast): 25.7 µM
- TGI (T-47D breast): > 61.1 µM
- GI50 (TK-10 renal): 5.43 µM
- TGI (TK-10 renal): 14 µM
- GI50 (U251 CNS): 1.83 µM
- TGI (U251 CNS): 3.32 µM
- GI50 (UACC-257 melanoma): > 45.7 µM
- TGI (UACC-257 melanoma): > 65.9 µM
- GI50 (UACC-62 melanoma): 13.3 µM
- TGI (UACC-62 melanoma): 28.6 µM
- GI50 (UO-31 renal): 1.76 µM
- TGI (UO-31 renal): 3.57 µM
